Results taken from the SangsterLogP compilation.
Values belong to the compound of their own block, whether it stands above or below them.

What was measured:
[1] = method code SF-GLC, from DOI: 10.1016/s0380-1330(82)71969-0
[2] = method code SF-RC, from DOI: 10.1016/j.apradiso.2005.06.012, PMID: 16131471; conditions: pH 7.5
[3] = method code SF-RC, from DOI: 10.1021/jm8013376, PMID: 19216563; conditions: pH 7.4
[4] = method code SF, from He, J.; Lang, L.; Zhang, Q.; Dong, L.; Chen, F.; Xu, G. (2010). Study on physicochemical properties of helicid. China Pharmacy, (1)23-25.; conditions: pH 2.0
[5] = not given; remark: listed apart in the source
[6] = method code SF-TN, from DOI: 10.1002/jps.2600741210, PMID: 4087196; conditions: pH 7.4
[7] = not given; remark: listed apart in the source
[8] = method code SF-HPLC, from DOI: 10.3109/03639045.2012.690417, PMID: 22670797
[9] = method code SF-RC, from DOI: 10.1002/syn.20147; conditions: pH 7.4
[10] = not given; remark: listed apart in the source
[11] = not given; remark: listed apart in the source
[12] = not given; remark: listed apart in the source
[13] = method code SF-AS, from DOI: 10.1211/0022357011776199, PMID: 11428660; conditions: pH 7.4
[14] = method code SF, from DOI: 10.1248/cpb.18.708; conditions: pH 6.4
[15] = method code SF-AS, from DOI: 10.1002/em.2850200210, PMID: 1505530
[16] = not given; remark: listed apart in the source
[17] = method code SF, from DOI: 10.1016/j.ejps.2007.04.003, PMID: 17540545; conditions: pH 3.0
[18] = not given; remark: listed apart in the source
[19] = not given; remark: listed apart in the source
[20] = not given; remark: listed apart in the source
[21] = not given; remark: listed apart in the source
[22] = not given; remark: listed apart in the source
[23] = method code SF-AS, from DOI: 10.1021/jm00001a010, PMID: 7837239; conditions: pH 7.0
[24] = not given; remark: listed apart in the source
[25] = not given; remark: listed apart in the source
[26] = not given; remark: listed apart in the source
[27] = not given; remark: listed apart in the source
[28] = not given; remark: listed apart in the source
[29] = method code SF-RC, from PMID: 7826467
[30] = method code SF-AS, from DOI: 10.1081/jlc-100104900; conditions: pH 1.0
[31] = method code SF, from DOI: 10.1016/0048-3575(89)90162-4
[32] = from Maeno, S., Miura, I., Masuda, K., & Nagata, T. (1990). Mepanipyrim(KIF-3535), a new pyrimidine fungicide. In Brighton Crop Protection Conference, Pests and Diseases - 1990 (Vol. 2, pp. 415-422). …
[33] = method code SF-AS, from DOI: 10.1002/jps.2600751012, PMID: 3795027
[34] = method code SF-HPLC, from DOI: 10.1021/je049947x
[35] = method code SF-RC, from PMID: 892676
[36] = method code SF-RC, from DOI: 10.1016/j.nucmedbio.2009.03.005, PMID: 19647167; conditions: pH 7.4
[37] = method code SF-HPLC, from DOI: 10.1021/jm970790w, PMID: 9548821; conditions: pH 7.4
[38] = not given; remark: listed apart in the source
[39] = method code SF-AS, from DOI: 10.1584/jpestics.8.69
[40] = method code SF, from DOI: 10.1016/0223-5234(96)89550-x
[41] = not given; remark: listed apart in the source
[42] = method code SF-AS, from PMID: 582409; conditions: pH 7.4
[43] = method code SF-RC, from DOI: 10.1007/bf00263256, PMID: 6394334
[44] = method code SF, from DOI: 10.1248/cpb.34.4787
[45] = not given; remark: listed apart in the source
[46] = method code SF-AS, from DOI: 10.1211/0022357001773940, PMID: 10757413; conditions: pH 7.4
[47] = method code SF, from Kim, K.; Kim, J.; Kim, Y. (1997). Study on physicochemical properties of pesticides. II. Hanguk Nonghwa Hakhoe Chi, 40(1)76-79.
[48] = not given; remark: listed apart in the source
[49] = method code SF-GLC, from DOI: 10.1002/etc.5620080702
[50] = method code SF, from DOI: 10.1016/s0021-9673(00)89463-7; conditions: pH 2.4
[51] = method code SF-HPLC, from DOI: 10.1002/etc.5620170216

Compound: Clc1ccc(C(c2ccc(Cl)cc2)C(Cl)(Cl)Cl)cc1
logP [1]: 5.1

Compound: COc1ccc2[nH]c(I)c(CCNC(C)=O)c2c1
logD [2]: 2.52

Compound: Fc1cccc(-n2nnnc2Oc2ccccc2)c1
logP: 3.6

Compound: Cc1cc2cccc(C)c2cc1C
logP [5]: 4.73

Compound: CCCCOC(=O)[C@@H](N)Cc1ccc(O)cc1
logD [6]: 1.8

Compound: Clc1ccc(C(c2ccc(Cl)cc2)C(Cl)Cl)cc1
logP [10]: 5.19

Compound: CCOP(=O)(OCC)Oc1cc(C)nc(NC(C)C)n1
logP [12]: 2.07

Compound: O=C1c2ccccc2-c2cc([N+](=O)[O-])ccc21
logP [15]: 3.06

Compound: CC(C)c1cccc(C(C)C)c1O
logP [16]: 3.63

Compound: CCn1cc(C(=O)O)c(=O)c2cc3c(cc21)OCO3
logD [17]: 1.01

Compound: FCCCN1CCC[C@H]1COc1cccnc1
logP [19]: 2.2

Compound: Nc1ccc(C=Cc2ccc(N)cc2S(=O)(=O)O)c(S(=O)(=O)O)c1
logP [21]: -1.7

Compound: O=[N+]([O-])c1ccc(Oc2ccc(C(F)(F)F)cc2[N+](=O)[O-])cc1
logP [22]: 3.7

Compound: O=c1[nH]c2c(c(=O)n1C1CCCCC1)CCC2
logP [24]: 1.9

Compound: CC#Cc1cc(C)nc(Nc2ccccc2)n1
logP [32]: 3.42

Compound: O=C(OCc1ccccc1)c1cccnc1
logP [33]: 2.4

Compound: Cc1cccc(C)c1N(Cn1cccn1)C(=O)CCl
logP [34]: 2.22

Compound: ClC(Cl)C(c1ccccc1)c1ccccc1
logP [39]: 4.51

Compound: O=C(Nc1ccn(C2CSC(CO)O2)c(=O)n1)c1cccnc1 (configuration not stated)
logP [40]: 0.84

Compound: CC(C)Cn1cnc2c(N)nc3ccccc3c21
logP [41]: 2.89

Compound: CC(=NO)C(C)(C)NCCCNC(C)(C)C(C)=NO
logP [43]: 1.76

Compound: O=C(O)c1ccc(-c2ccccc2)cc1
logP [44]: 3.75

Compound: CCOP(=S)(OCC)Oc1cc(C(F)(F)F)nn1-c1ccccc1
logP [47]: 5.24

Now from value to compound:

logD [3]: 2.48
Compound: Oc1ccc2nc(-c3ccccc3)sc2c1

logD [4]: -1.08
Compound: O=Cc1ccc(O[C@@H]2O[C@H](CO)[C@@H](O)[C@@H](O)[C@H]2O)cc1

logP [7]: 1.2
Compound: CCCCCCn1c(=O)c2c(ncn2C)n(C)c1=O

logP [8]: 3.9
Compound: CC(C)(C)c1ccc(/C=N/NC(N)=S)cc1

logD [9]: 3.4
Compound: Cc1cc(C#N)cc(C#Cc2csc(C)n2)c1

logP [11]: 0.63
Compound: CCOC(=O)CCCn1c(=O)oc2ccccc2c1=O

logD [13]: 0.51
Compound: Cc1ncc([N+](=O)[O-])n1CCOC(=O)CN1CCCCC1

logD [14]: 2.52
Compound: Cc1cc(C)cc(NS(=O)(=O)c2ccc(N)cc2)c1

logP [18]: 0.98
Compound: CCn1cc(C(=O)O)c(=O)c2cc([N+](=O)[O-])c(NCCO)cc21

logP [20]: 6.38
Compound: Cc1cc(Cc2cc(Cl)ccc2Cl)c(Cl)cc1Cl

logD [23]: 1.75
Compound: C=CCn1cnc2c(=O)[nH]c(Nc3ccccc3)nc21

logP [25]: 3.5
Compound: O=C(Oc1ccccc1)c1ccccc1

logP [26]: 2.91
Compound: Cn1ccc2cc(-c3nc4ccc(F)nc4o3)cnc21

logP [27]: 2.62
Compound: CCNc1ccc(C(=O)OCCN(C)C)cc1

logP [28]: 3.56
Compound: O=C(OCc1ccccc1)c1ccc(O)cc1

logP [29]: 2.84
Compound: COc1ccc2c(C)cc(=O)n3c(C)cc1c23

logD [30]: 2.86
Compound: CC(C(=O)O)c1ccc(C(=O)c2ccccc2)s1 (configuration not stated)

logP [31]: 3.24
Compound: OC1(c2cc(Cl)ccc2Cl)CCCCC1n1cncn1 (configuration not stated)

logP [35]: 2.93
Compound: O=C(Nc1ccc(Cl)cc1)Nc1ccc(Cl)c(C(F)(F)F)c1

logD [36]: 2.11
Compound: CO/N=C1/C=C(C#Cc2cccc(F)n2)CCC1

logD [37]: 0.53
Compound: CC1(C)O[C@@H]2[C@@H](CO[C@@]3(COS(N)(=O)=O)OC(C)(C)O[C@@H]23)O1

logP [38]: 3.95
Compound: O=C(O)c1cc(-c2ccc(F)cc2F)ccc1O

logD [42]: 1.19
Compound: COc1ccc(-c2nc3c(N)nc(N)nc3nc2N)cc1

logP [45]: 1.43
Compound: N#Cc1ccc(NS(=O)(=O)c2ccc(N)cc2)cc1

logD [46]: -0.32
Compound: CCc1c(O)c(=O)ccn1CCCn1ccnc1

logP [48]: 5.24
Compound: CCCCCCc1ccccc1

logP [49]: 4.54
Compound: Clc1ccc(C2OC2c2ccccc2)cc1 (configuration not stated)

logD [50]: 3.12
Compound: O=C(O)c1ccc2oc3ccccc3c(=O)c2c1

logP [51]: 4.68
Compound: c1ccc2cc3ccccc3cc2c1
